We go through 34 compounds from PubChem BioAssay AID651919 (Sanford-Burnham Center for Chemical Genomics, 2012).

Structures are written as SMILES. Values joined by “and” are separate entries in the source; they are usually repeats but may differ in a detail not shown here. Equal values may be shown once. Active and inactive are the calls of the source.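 Rule for the calls: active = CXCR6 IC50 below 5 µM, and the CXCR5 counter screen gives no IC50 under five times the CXCR6 IC50; inactive = the rest.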

Test [1] has as its target C-X-C chemokine receptor type 5 (Homo sapiens) (UniProt P32302). As to the kind of experiment: antagonism of CXCR6 versus CXCR5 signaling – cell-based, CHO-K1 PathHunter beta-arrestin, luminescence, set 4, selectivity assay for CXCR6 antagonist project, profiling panel (AID 651919). Conditions: CHO-K1 PathHunter CXCR5 beta-arrestin, CXCR5, mean of runs.
The target in test [2] is C-X-C chemokine receptor type 6 (Homo sapiens) (UniProt O00574). The test is described as above. Conditions: CHO-K1 PathHunter CXCR6 beta-arrestin, CXCR6, mean of runs.
Sequence of C-X-C chemokine receptor type 6 (Homo sapiens) (O00574 whole entry, looked up): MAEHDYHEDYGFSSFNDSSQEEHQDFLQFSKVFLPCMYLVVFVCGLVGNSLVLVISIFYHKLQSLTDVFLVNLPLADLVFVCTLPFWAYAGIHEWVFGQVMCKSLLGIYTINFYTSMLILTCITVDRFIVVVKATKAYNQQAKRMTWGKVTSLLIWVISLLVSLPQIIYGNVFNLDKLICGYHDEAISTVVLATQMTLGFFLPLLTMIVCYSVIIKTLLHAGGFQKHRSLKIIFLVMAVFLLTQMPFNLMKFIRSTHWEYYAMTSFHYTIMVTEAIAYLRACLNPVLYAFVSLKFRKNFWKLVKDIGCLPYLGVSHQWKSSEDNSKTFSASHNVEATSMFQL

As a reminder, the IC50 is the concentration that gives 50% inhibition. Consider `Cc1ccc(NC(=O)CN2C3CCCC2CC(NC(=O)c2ccc4c(c2)OCO4)C3)cc1` (stereo not drawn), for which the IC50 in test [1] and in test [2] was > 79 µM (inactive) throughout.
With `COc1cccc(C(=O)NC2CC3CCCC(C2)N3CC(=O)Nc2ccc(Cl)cc2)c1` (stereo not drawn), the IC50 in test [1] and in test [2] was > 79 µM (inactive) throughout.
Take `COc1ccc(C(=O)NC2CC3CCCC(C2)N3CC(=O)Nc2ccccc2)cc1OC` (stereo not drawn): the IC50 in test [1] and in test [2] was > 79 µM (inactive) throughout.
On to `COc1ccc(C(=O)NC2CC3CCCC(C2)N3CC(=O)Nc2ccc(C)cc2)cc1` (stereo not drawn), for which the IC50 in test [1] and in test [2] was > 79 µM (inactive) in each case.
As for `COc1cc(OC)cc(C(=O)NC2CC3CCCC(C2)N3CC(=O)Nc2ccc(C)cc2)c1` (stereo not drawn), the IC50 in test [1] and in test [2] was > 79 µM (inactive) each time.
For the compound `COc1cc(C(=O)NC2CC3CCCC(C2)N3CC(=O)Nc2ccc(Cl)cc2)cc(OC)c1OC` (stereo not drawn), the figures for the IC50 in test [1] and in test [2] were > 79 µM (inactive) and 1.48 µM, respectively.
Taken in the same sequence, the figures for `COc1ccc(C(=O)NC2CC3CCCC(C2)N3CC(=O)Nc2ccc(F)cc2)cc1OC` (stereo not drawn) were > 79 µM (inactive) and > 79 µM (inactive).
Taken in the same sequence, the figures for `COc1cc(OC)cc(C(=O)NC2CC3CCCC(C2)N3CC(=O)Nc2ccc(Cl)cc2)c1` (stereo not drawn) were > 79 µM (inactive) and > 79 µM (inactive).
On to `COc1ccc(C(=O)NC2CC3CCCC(C2)N3CC(=O)Nc2ccc(Cl)cc2)cc1` (stereo not drawn), for which the IC50 in test [1] and in test [2] was > 79 µM (inactive) each time.
Consider `COc1ccc(NC(=O)CN2C3CCCC2CC(NC(=O)c2cc(OC)cc(OC)c2)C3)cc1` (stereo not drawn), for which the IC50 in test [1] and in test [2] was > 79 µM (inactive) in each case.
For the compound `COc1ccccc1NC(=O)CN1C2CCCC1CC(NC(=O)c1cc(OC)c(OC)c(OC)c1)C2` (stereo not drawn), the IC50 in test [1] is > 79 µM (inactive); in test [2] it was 1.85 µM.
Taken in the same sequence, the figures for `COc1cc(C(=O)NC2CC3CCCC(C2)N3CC(=O)Nc2ccc(F)cc2)cc(OC)c1OC` (stereo not drawn) were > 79 µM (inactive) and “inactive”.
Taken in the same sequence, the figures for `COc1ccc(NC(=O)CN2C3CCCC2CC(NC(=O)c2cccc(OC)c2)C3)cc1` (stereo not drawn) were > 79 µM (inactive) and > 79 µM (inactive).
Taken in the same sequence, the figures for `COc1cccc(C(=O)NC2CC3CCCC(C2)N3CC(=O)Nc2ccc(C)cc2)c1` (stereo not drawn) were > 79 µM (inactive) and > 79 µM (inactive).
For `COc1ccc(C(=O)NC2CC3CCCC(C2)N3CC(=O)Nc2ccc(F)cc2)cc1` (stereo not drawn), the IC50 in test [1] and in test [2] was > 79 µM (inactive) throughout.
`COc1cc(OC)cc(C(=O)NC2CC3CCCC(C2)N3CC(=O)Nc2ccc(F)cc2)c1` (stereo not drawn): the IC50 is 43.4 µM in test [1] and > 79 µM (inactive) in test [2].
Taken in the same sequence, the figures for `COc1ccc(C(=O)NC2CC3CCCC(C2)N3CC(=O)Nc2ccc(Cl)cc2)cc1OC` (stereo not drawn) were > 79 µM (inactive) and > 79 µM (inactive).
As to `COc1cc(C(=O)NC2CC3CCCC(C2)N3CC(=O)Nc2ccccc2Cl)cc(OC)c1OC` (stereo not drawn), the IC50 was > 79 µM (inactive) in test [1]; 0.356 µM and 0.137 µM in test [2].
Turning to `O=C(CN1C2CCCC1CC(NC(=O)c1ccc3c(c1)OCO3)C2)Nc1ccccc1` (stereo not drawn), the IC50 in test [1] and in test [2] was > 79 µM (inactive) each time.
On to `O=C(CN1C2CCCC1CC(NC(=O)c1ccc3c(c1)OCO3)C2)Nc1ccc(F)cc1` (stereo not drawn), for which the IC50 in test [1] and in test [2] was > 79 µM (inactive) in each case.
For the compound `O=C(CN1C2CCCC1CC(NC(=O)c1ccccc1)C2)Nc1ccccc1` (stereo not drawn), the IC50 in test [1] and in test [2] was > 79 µM (inactive) in each case.
As for `COc1cc(OC)cc(C(=O)NC2CC3CCCC(C2)N3CC(=O)Nc2ccccc2)c1` (stereo not drawn), the IC50 was 12.5 µM in test [1] and > 79 µM (inactive) in test [2].
Taken in the same sequence, the figures for `COc1ccc(C(=O)NC2CC3CCCC(C2)N3CC(=O)Nc2ccccc2)cc1` (stereo not drawn) were > 79 µM (inactive) and > 79 µM (inactive).
Taken in the same sequence, the figures for `COc1ccc(CN2C3CCCC2CC(NC(=O)c2cc(OC)c(OC)c(OC)c2)C3)cc1` (stereo not drawn) were > 79 µM (inactive) and “inactive”.
Taken in the same sequence, the figures for `COc1cc(C(=O)NC2CC3CCCC(C2)N3CC(=O)Nc2ccc(C)cc2)cc(OC)c1OC` (stereo not drawn) were > 79 µM (inactive) and “inactive”.
As for `COc1cccc(C(=O)NC2CC3CCCC(C2)N3CC(=O)Nc2ccccc2)c1` (stereo not drawn), the IC50 in test [1] and in test [2] was > 79 µM (inactive) in each case.
Regarding `COc1ccc(C(=O)NC2CC3CCCC(C2)N3CC(=O)Nc2ccc(C)cc2)cc1OC` (stereo not drawn), the IC50 in test [1] and in test [2] was > 79 µM (inactive) in each case.
For `COc1cc(C(=O)NC2CC3CCCC(C2)N3CC(=O)Nc2ccccc2)cc(OC)c1OC` (stereo not drawn), the IC50 was > 79 µM (inactive) in test [1]; 3.4 µM and 4.74 µM in test [2].
In the case of `O=C(CN1C2CCCC1CC(NC(=O)c1ccc3c(c1)OCO3)C2)Nc1ccc(Cl)cc1` (stereo not drawn), the IC50 in test [1] and in test [2] was > 79 µM (inactive) each time.
Regarding `COc1ccc(NC(=O)CN2C3CCCC2CC(NC(=O)c2ccc(OC)c(OC)c2)C3)cc1` (stereo not drawn), the IC50 in test [1] and in test [2] was > 79 µM (inactive) each time.
Regarding `COc1ccc(NC(=O)CN2C3CCCC2CC(NC(=O)c2cc(OC)c(OC)c(OC)c2)C3)cc1` (stereo not drawn), in test [1], the IC50 is > 79 µM (inactive). In addition, the IC50 entry in test [2] is “inactive”.
Taken in the same sequence, the figures for `COc1cccc(C(=O)NC2CC3CCCC(C2)N3CC(=O)Nc2ccc(F)cc2)c1` (stereo not drawn) were > 79 µM (inactive) and > 79 µM (inactive).
On to `COc1ccc(NC(=O)CN2C3CCCC2CC(NC(=O)c2ccc4c(c2)OCO4)C3)cc1` (stereo not drawn), for which the IC50 in test [1] and in test [2] was > 79 µM (inactive) throughout.
Turning to `COc1ccc(NC(=O)CN2C3CCCC2CC(NC(=O)c2ccc(OC)cc2)C3)cc1` (stereo not drawn), the IC50 in test [1] and in test [2] was > 79 µM (inactive) in each case.
